Data reported in patent US20250084056A1, “SUBSTITUTED OXOISOINDOLINYL PIPERIDINE-2,6-DIONE COMPOUNDS” (BRISTOL-MYERS SQUIBB COMPANY, priority 2023, published 2025).

Experiments:
Assay type in all cases: cell-based
[1] = system: Phospho-Rb (Ser807/811); experiment: Phospho-Retinoblastoma (pRB) Cellular Assay; settings: Homo sapiens, OVCAR-3, NIH OVCAR3 cells, 24 hours; for IC50: concentration giving 50% response; for Emax: maximum response, reference compound at 10 μM = 100%, read-out: pRB Ymax
Procedure, shortened: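 Phospho-Rb (Ser807/811) kit read-out on EnVision after lysis (≥4 h, room temperature, dark) of OVCAR3 cells exposed to compound dilutions for 24 h. IC50 and maximum response Ymax are relative to a 10 μM reference compound defining 100%.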

[2] = molecular target: GSPT1 (Homo sapiens, UniProt P15170+Q96SW2); experiment: GSPT1 Cellular Degradation Assay (DF15-GSPT1-ePL); set-up: expressed in transfected cells; settings: DF15-GSPT1-ePL cells, 20 hours
Procedure, shortened: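 DC50 and Dmax were derived from chemiluminescence, with 75% response set by the reference compound at […]. Readout was ePL enzyme-fragment complementation in a DF15 line expressing chimeric GSPT1. Cells were exposed to compound for 20 h at 37 °C in RPMI 1640 with 10% FBS, cooled 30 min, then lysed with substrate for 60 min.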

[3] = molecular target: Cyclin E1 (Homo sapiens, UniProt P24864+Q96SW2); experiment: Cyclin E1 Cellular Degradation Assay (MSD); set-up: endogenous in cells; host or cells: OVCAR3; settings: for DC50 / Dmax: Cyclin E1 cellular degradation; for Dmax: maximum degradation; for Ratio of GSPT1 DC50/Cyclin E1 DC50: selectivity for degradation of Cyclin E1 over GSPT1
Procedure, shortened: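 Cyclin E1 remaining after 24 h compound exposure of OVCAR3 cells was quantified in lysates by electrochemiluminescent MSD sandwich assay. DC50 (50% response concentration) and Dmax (maximum response) were calculated, with 110% response set by a reference compound at […].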

Cyclin E1, sequence (P24864 whole entry): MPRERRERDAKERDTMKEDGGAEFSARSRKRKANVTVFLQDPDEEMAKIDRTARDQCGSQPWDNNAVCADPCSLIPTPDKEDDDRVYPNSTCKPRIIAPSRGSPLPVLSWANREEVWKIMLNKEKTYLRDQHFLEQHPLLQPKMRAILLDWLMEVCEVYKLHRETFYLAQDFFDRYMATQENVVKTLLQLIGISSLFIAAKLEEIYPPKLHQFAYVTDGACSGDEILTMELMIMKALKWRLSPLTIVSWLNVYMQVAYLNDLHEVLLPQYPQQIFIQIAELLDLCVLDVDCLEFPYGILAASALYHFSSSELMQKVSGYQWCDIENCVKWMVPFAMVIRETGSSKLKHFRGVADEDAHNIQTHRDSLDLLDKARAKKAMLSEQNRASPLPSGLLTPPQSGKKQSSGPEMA
Cyclin E1, sequence (Q96SW2 whole entry): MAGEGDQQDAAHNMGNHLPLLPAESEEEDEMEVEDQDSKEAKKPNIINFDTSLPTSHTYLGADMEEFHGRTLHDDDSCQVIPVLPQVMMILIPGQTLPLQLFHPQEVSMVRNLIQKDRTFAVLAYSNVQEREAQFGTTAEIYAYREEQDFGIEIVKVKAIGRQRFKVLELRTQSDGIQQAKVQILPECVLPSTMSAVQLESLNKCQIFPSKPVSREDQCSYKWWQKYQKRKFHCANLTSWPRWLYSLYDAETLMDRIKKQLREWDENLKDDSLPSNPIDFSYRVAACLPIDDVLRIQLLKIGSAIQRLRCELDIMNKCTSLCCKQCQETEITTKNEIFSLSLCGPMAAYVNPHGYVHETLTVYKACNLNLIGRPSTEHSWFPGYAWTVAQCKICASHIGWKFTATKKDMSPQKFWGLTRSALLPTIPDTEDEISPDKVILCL
Cyclin E1, sequence (Q16531 whole entry partner): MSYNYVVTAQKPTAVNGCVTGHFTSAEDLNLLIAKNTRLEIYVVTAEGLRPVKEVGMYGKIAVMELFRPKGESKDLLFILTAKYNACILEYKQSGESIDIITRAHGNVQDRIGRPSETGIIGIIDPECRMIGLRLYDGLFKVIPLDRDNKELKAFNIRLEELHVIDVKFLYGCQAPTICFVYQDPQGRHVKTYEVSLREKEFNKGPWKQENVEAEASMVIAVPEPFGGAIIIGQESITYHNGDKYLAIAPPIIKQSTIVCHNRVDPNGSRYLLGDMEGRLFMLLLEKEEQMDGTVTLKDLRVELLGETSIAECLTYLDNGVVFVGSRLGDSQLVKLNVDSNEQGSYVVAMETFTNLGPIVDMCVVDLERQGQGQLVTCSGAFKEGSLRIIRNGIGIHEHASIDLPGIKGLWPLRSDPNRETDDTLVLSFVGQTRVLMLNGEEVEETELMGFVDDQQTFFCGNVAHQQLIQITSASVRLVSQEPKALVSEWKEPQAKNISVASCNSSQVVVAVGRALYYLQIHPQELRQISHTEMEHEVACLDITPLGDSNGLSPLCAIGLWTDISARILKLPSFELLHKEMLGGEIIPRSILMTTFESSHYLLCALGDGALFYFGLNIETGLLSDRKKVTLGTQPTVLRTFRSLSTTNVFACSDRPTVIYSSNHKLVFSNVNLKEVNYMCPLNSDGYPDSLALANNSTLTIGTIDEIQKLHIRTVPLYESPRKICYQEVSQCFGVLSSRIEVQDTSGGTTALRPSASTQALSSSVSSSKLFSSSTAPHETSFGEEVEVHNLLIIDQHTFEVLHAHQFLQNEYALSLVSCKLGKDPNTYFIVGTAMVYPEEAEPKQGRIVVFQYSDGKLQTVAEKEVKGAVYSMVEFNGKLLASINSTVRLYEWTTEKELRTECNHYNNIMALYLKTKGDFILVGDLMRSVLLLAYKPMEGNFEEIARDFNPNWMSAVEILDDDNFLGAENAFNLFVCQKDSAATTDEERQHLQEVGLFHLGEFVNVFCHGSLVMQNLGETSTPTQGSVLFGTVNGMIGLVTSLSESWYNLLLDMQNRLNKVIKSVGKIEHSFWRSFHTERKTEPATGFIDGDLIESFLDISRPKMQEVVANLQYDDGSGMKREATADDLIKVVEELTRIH
GSPT1, sequence (P15170 whole entry, the tested form may be a part): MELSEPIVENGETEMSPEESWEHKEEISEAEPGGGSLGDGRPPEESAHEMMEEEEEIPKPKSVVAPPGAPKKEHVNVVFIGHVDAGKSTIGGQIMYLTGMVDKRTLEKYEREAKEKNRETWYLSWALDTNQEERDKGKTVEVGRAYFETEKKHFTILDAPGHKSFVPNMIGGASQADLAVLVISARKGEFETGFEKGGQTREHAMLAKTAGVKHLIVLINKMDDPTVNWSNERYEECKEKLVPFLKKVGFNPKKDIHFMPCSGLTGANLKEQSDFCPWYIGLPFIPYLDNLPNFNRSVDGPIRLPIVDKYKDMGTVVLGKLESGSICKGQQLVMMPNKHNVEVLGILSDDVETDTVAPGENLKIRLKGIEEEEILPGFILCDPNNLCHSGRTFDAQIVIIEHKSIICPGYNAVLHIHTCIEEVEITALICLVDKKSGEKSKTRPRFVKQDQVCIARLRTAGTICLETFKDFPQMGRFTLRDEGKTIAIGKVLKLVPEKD
GSPT1, sequence (Q96SW2 whole entry, the tested form may be a part): as the sequence (Q96SW2 whole entry) above
GSPT1, sequence (Q16531 whole entry partner, the tested form may be a part): as the sequence (Q16531 whole entry partner) above

| Compound | IC50 [1] | DC50 [2] | Dmax [2] | DC50 [3] | Dmax [3] | Ratio of GSPT1 DC50/Cyclin E1 DC50 [3] | Emax [1] |
| --- | --- | --- | --- | --- | --- | --- | --- |
| CCOc1c(COC(=O)Nc2ccc(Oc3cccc(F)c3)cc2)ccc2c1C(=O)N(C1CCC(=O)NC1=O)C2 (stereo not drawn) [Example 55, [2-(2,6-dioxopiperidin-3-yl)-4-ethoxy-3-oxo-2,3-dihydro-1H-isoindol-5-yl]methyl N-[4-(3-fluorophenoxy)phenyl]carbamate] | 185 nM | > 14000 nM | 21% | 141 nM | 108% | >99 | 114% |
| CC(C)Oc1c(COC(=O)Nc2ccc(Oc3ccc(F)c(F)c3)cc2)ccc2c1C(=O)N(C1CCC(=O)NC1=O)C2 (stereo not drawn) [Example 56, [2-(2,6-dioxopiperidin-3-yl)-3-oxo-4-(propan-2-yloxy)-2,3-dihydro-1H-isoindol-5-yl]methyl N-[4-(3,4-difluorophenoxy)phenyl]carbamate] | 113 nM | > 14000 nM | 19% | 159 nM | 106% | >88 | 127% |
| CC(C)Oc1c(COC(=O)Nc2ccc(Oc3cccc(F)c3)cc2)ccc2c1C(=O)N(C1CCC(=O)NC1=O)C2 (stereo not drawn) [Example 123, [2-(2,6-dioxopiperidin-3-yl)-3-oxo-4-(propan-2-yloxy)-2,3-dihydro-1H-isoindol-5-yl]methyl N-[4-(3-fluorophenoxy)phenyl]carbamate] | 110 nM | > 14000 nM | 4% | 131 nM | 107% | >107 | 121% |
| O=C1CC[C@H](N2Cc3ccc(COC(=O)Nc4ccc(Oc5ccc(F)c(F)c5)cc4)c(OCCCc4ccccc4)c3C2=O)C(=O)N1 [Example 173, {2-[(3S)-2,6-dioxopiperidin-3-yl]-3-oxo-4-(3-phenylpropoxy)-2,3-dihydro-1H-isoindol-5-yl}methyl N-[4-(3,4-difluorophenoxy)phenyl]carbamate] | 129 nM | > 14000 nM | 14% | 156 nM | 105% | >89 | 127% |
| COc1c(COC(=O)Nc2ccc(Cc3ccc(F)c(Cl)c3)cc2)ccc2c1C(=O)N(C1CCC(=O)NC1=O)C2 (stereo not drawn) [Example 21, [2-(2,6-dioxopiperidin-3-yl)-4-methoxy-3-oxo-2,3-dihydro-1H-isoindol-5-yl]methyl N-{4-[(3-chloro-4-fluorophenyl)methyl]phenyl}carbamate] | 818 nM | > 14000 nM | 14% | 40 nM | 101% | >353 | 92% |
| COc1c(COC(=O)Nc2ccc(Oc3cc(F)c(F)cc3F)cc2)ccc2c1C(=O)N(C1CCC(=O)NC1=O)C2 (stereo not drawn) [Example 44, [2-(2,6-dioxopiperidin-3-yl)-4-methoxy-3-oxo-2,3-dihydro-1H-isoindol-5-yl]methyl N-[4-(2,4,5-trifluorophenoxy)phenyl]carbamate] | 109 nM | > 14000 nM | 42% | 273 nM | 111% | >51 | 111% |

Further compounds by falling IC50 [1], results first:

| IC50 [1] | DC50 [2] | Dmax [2] | DC50 [3] | Dmax [3] | Ratio of GSPT1 DC50/Cyclin E1 DC50 [3] | Compound | Emax [1] |
| --- | --- | --- | --- | --- | --- | --- | --- |
| 106 nM | 10000 nM | 63% | 69 nM | 108% | 146 | COc1c(COC(=O)Nc2ccc(Oc3ccccc3Cl)cc2F)ccc2c1C(=O)N(C1CCC(=O)NC1=O)C2 (stereo not drawn) [Example 107, [2-(2,6-dioxopiperidin-3-yl)-4-methoxy-3-oxo-2,3-dihydro-1H-isoindol-5-yl]methyl N-[4-(2-chlorophenoxy)-2-fluorophenyl]carbamate] | 124% |
| 99 nM | > 14000 nM | 37% | 190 nM | 113% | >74 | COc1c(COC(=O)Nc2ccc(Oc3cccc4ccccc34)cc2)ccc2c1C(=O)N(C1CCC(=O)NC1=O)C2 (stereo not drawn) [Example 113, [2-(2,6-dioxopiperidin-3-yl)-4-methoxy-3-oxo-2,3-dihydro-1H-isoindol-5-yl]methyl N-[4-(naphthalen-1-yloxy)phenyl]carbamate] | 93% |
| 74 nM | > 14000 nM | 15% | 95 nM | 106% | >147 | COc1c(COC(=O)Nc2ccc(Oc3cccc(F)c3Cl)cc2)ccc2c1C(=O)N(C1CCC(=O)NC1=O)C2 (stereo not drawn) [Example 111, [2-(2,6-dioxopiperidin-3-yl)-4-methoxy-3-oxo-2,3-dihydro-1H-isoindol-5-yl]methyl N-[4-(2-chloro-3-fluorophenoxy)phenyl]carbamate] | 99% |
| 43 nM | > 14000 nM | 2% | 12 nM | 110% | >1,121 | O=C1CCC(N2Cc3ccc(COC(=O)Nc4ccc(Oc5ccc(F)cc5)cc4F)c(O[C@@H]4CCCOC4)c3C2=O)C(=O)N1 (stereo partly drawn) [Example 147, [2-(2,6-dioxopiperidin-3-yl)-4-[(3R)-oxan-3-yloxy]-3-oxo-2,3-dihydro-1H-isoindol-5-yl]methyl N-[2-fluoro-4-(4-fluorophenoxy)phenyl]carbamate] | 137% |
| 23 nM | > 14000 nM | 4% | 106 nM | 103% | >133 | O=C1CCC(N2Cc3ccc(COC(=O)Nc4ccc(Oc5ccc(F)cc5)cc4)c(O[C@@H]4CCCOC4)c3C2=O)C(=O)N1 (stereo partly drawn) [Example 144, [2-(2,6-dioxopiperidin-3-yl)-4-[(3R)-oxan-3-yloxy]-3-oxo-2,3-dihydro-1H-isoindol-5-yl]methyl N-[4-(4-fluorophenoxy)phenyl]carbamate] | 145% |
| 19 nM | > 14000 nM | 33% | 62 nM | 110% | >226 | COCCOc1c(COC(=O)Nc2ccc(Oc3ccc(F)c(F)c3)cc2)ccc2c1C(=O)N(C1CCC(=O)NC1=O)C2 (stereo not drawn) [Example 168, [2-(2,6-dioxopiperidin-3-yl)-4-(2-methoxyethoxy)-3-oxo-2,3-dihydro-1H-isoindol-5-yl]methyl N-[4-(3,4-difluorophenoxy)phenyl]carbamate] | 118% |
